Reference: ChEMBL document CHEMBL1268978, “Arylpiperazine-containing pyrimidine 4-carboxamide derivatives targeting serotonin 5-HT(2A), 5-HT(2C), and the serotonin transporter as a potential antidepressant” (Bioorg Med Chem Lett, 2010)
Activity calls are given as the source filed them. The calls are words filed in the database; no cut-off is given here.

Assays:
[1] = test system: Mus musculus; assay: Toxicity in mouse assessed as induction of hyperactivity measured for 30 mins at 25 mg/kg, ip measured by spontaneous locomotor activity assay; type: organism-based; design: dose 25 mg/kg, route intraperitoneal; conditions: in vivo, 0.5 h
[2] = test system: Mus musculus; assay: Antidepressant activity in mouse at 25 mg/kg, ip administered 30 mins before test by forced swimming test; type: functional, organism-based; design: dose 25 mg/kg
[3] = molecular target: 5-hydroxytryptamine receptor 2A (Homo sapiens, UniProt P28223); assay: Displacement of [3H]ketanserin from human recombinant 5HT2A receptor expressed in CHO-K1 cells; type: cell-based
[4] = molecular target: Voltage-gated inwardly rectifying potassium channel KCNH2 (Homo sapiens, UniProt Q12809); assay: Inhibition of human ERG channel
[5] = molecular target: T1, 5-hydroxytryptamine receptor 2C (Homo sapiens, UniProt P28335); assay: Displacement of [3H]mesulergine from human recombinant 5HT2C receptor expressed in CHO-K1 cells; type: cell-based
T1 sequence (P28335 whole entry): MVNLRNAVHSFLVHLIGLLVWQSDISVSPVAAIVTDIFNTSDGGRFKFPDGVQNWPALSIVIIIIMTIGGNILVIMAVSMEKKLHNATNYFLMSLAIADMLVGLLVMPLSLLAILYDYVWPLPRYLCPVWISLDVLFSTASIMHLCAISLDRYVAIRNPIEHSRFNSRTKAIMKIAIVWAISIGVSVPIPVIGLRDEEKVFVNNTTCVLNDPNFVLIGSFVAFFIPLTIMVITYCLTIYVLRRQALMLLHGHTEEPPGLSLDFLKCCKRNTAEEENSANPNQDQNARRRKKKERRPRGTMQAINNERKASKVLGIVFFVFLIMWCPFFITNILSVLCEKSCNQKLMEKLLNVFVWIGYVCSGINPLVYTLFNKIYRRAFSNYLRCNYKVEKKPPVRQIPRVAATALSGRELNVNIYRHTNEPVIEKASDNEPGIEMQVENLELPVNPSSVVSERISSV

[6] = molecular target: Sodium-dependent serotonin transporter (Homo sapiens, UniProt P31645); assay: Displacement of [3H]imipramine from human recombinant SERT receptor expressed in HEK293 cells; type: cell-based
[7] = test system: Mus musculus; assay: Toxicity in mouse assessed as induction of hypoactivity measured for 30 mins at 25 mg/kg, ip measured by spontaneous locomotor activity assay; type: organism-based; design: dose 25 mg/kg, route intraperitoneal; conditions: in vivo, 0.5 h
[8] = molecular target: T2, Cytochrome P450 1A2 (Homo sapiens, UniProt P05177); assay: Inhibition of CYP1A2; type: ADME
T2 sequence (P05177 whole entry): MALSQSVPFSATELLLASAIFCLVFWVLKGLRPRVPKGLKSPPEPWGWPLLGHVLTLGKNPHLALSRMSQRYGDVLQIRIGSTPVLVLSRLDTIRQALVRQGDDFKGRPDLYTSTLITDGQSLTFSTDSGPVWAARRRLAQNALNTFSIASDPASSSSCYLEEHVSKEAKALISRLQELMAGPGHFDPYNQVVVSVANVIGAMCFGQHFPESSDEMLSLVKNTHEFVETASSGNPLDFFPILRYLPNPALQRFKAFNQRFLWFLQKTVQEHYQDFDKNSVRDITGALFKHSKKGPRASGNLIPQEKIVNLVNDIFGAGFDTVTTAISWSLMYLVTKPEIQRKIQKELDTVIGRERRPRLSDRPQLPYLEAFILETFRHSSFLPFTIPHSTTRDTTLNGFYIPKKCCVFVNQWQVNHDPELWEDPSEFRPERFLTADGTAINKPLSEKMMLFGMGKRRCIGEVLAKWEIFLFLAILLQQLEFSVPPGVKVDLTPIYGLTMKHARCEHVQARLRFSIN

[9] = molecular target: Cytochrome P450 2D6 (Homo sapiens, UniProt P10635); assay: Inhibition of CYP2D6; type: ADME
[10] = molecular target: Cytochrome P450 3A4 (Homo sapiens, UniProt P08684); assay: Inhibition of CYP3A4; type: ADME
[11] = molecular target: Cytochrome P450 2C9 (Homo sapiens, UniProt P11712); assay: Inhibition of CYP2C9; type: ADME
Sequence of Cytochrome P450 2C9 (P11712 whole entry): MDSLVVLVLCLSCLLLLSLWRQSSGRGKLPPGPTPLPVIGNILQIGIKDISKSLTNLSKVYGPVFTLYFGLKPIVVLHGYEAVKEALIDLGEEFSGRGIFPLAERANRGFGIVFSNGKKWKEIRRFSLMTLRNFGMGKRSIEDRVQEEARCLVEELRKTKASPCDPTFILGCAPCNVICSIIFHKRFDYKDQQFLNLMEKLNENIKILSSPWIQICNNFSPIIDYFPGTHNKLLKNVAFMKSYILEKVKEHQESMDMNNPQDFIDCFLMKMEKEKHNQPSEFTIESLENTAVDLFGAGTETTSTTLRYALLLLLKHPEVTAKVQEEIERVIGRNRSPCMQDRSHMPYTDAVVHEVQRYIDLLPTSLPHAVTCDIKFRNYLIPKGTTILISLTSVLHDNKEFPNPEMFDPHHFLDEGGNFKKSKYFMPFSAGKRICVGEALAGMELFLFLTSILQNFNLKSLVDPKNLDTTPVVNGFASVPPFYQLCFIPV

Sequence of 5-hydroxytryptamine receptor 2A (P28223 whole entry): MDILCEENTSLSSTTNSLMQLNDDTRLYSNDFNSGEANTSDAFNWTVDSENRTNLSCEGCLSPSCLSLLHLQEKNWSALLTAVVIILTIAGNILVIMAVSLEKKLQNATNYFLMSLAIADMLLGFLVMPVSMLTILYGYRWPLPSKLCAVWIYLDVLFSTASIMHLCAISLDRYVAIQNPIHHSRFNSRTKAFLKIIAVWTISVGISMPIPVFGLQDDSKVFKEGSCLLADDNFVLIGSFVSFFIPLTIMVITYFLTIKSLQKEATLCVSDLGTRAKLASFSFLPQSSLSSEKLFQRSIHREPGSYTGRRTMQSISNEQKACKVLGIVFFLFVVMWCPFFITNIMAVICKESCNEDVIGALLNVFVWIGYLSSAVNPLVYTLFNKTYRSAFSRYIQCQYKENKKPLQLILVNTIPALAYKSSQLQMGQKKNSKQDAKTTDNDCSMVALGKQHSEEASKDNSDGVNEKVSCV
Sequence of Sodium-dependent serotonin transporter (P31645 whole entry): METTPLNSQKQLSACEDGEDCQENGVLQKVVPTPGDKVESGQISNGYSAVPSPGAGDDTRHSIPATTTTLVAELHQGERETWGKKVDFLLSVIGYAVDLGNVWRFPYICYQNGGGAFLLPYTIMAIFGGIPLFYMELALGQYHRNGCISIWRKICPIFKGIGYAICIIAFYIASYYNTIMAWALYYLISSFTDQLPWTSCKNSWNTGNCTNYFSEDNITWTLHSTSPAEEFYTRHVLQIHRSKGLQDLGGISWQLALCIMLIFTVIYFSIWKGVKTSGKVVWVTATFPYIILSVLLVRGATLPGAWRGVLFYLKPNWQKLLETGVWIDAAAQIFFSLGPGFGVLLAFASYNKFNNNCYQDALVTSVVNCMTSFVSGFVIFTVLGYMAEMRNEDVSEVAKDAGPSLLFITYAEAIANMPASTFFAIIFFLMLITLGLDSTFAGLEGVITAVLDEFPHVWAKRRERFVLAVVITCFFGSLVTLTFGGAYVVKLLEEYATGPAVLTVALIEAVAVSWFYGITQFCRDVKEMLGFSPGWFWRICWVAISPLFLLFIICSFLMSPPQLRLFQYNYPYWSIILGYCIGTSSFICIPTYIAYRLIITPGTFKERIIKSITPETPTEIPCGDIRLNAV
Sequence of Voltage-gated inwardly rectifying potassium channel KCNH2 (Q12809 whole entry): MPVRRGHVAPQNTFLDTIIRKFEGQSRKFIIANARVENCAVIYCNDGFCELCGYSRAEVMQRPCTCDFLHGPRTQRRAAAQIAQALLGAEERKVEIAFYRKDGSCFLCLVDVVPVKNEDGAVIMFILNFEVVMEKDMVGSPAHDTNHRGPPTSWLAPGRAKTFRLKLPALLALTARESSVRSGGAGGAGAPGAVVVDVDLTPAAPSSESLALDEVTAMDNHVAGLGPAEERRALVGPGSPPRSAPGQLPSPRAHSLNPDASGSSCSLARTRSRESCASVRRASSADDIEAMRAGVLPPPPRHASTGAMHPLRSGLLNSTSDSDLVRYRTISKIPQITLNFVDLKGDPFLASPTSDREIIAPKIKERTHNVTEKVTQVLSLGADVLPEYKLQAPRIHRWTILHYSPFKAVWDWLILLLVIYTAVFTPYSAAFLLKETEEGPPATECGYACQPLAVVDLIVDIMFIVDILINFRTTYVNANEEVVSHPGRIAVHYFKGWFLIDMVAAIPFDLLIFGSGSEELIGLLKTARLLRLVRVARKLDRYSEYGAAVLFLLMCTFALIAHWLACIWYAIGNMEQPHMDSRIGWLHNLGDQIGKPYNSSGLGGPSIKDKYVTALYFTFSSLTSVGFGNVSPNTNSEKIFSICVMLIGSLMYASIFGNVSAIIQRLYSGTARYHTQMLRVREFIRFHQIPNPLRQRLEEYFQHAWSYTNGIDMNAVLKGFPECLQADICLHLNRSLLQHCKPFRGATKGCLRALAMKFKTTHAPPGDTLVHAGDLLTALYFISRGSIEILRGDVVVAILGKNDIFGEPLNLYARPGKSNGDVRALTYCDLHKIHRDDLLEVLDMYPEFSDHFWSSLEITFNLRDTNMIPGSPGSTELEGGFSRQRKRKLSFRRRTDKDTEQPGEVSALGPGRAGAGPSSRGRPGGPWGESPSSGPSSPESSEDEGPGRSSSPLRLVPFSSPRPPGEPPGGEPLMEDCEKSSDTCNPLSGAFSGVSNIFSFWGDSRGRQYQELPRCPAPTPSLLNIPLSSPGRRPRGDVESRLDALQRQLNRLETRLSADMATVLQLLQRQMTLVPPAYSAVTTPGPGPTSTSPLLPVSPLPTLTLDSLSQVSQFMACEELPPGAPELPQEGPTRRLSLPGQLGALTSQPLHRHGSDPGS
Sequence of Cytochrome P450 2D6 (P10635 whole entry): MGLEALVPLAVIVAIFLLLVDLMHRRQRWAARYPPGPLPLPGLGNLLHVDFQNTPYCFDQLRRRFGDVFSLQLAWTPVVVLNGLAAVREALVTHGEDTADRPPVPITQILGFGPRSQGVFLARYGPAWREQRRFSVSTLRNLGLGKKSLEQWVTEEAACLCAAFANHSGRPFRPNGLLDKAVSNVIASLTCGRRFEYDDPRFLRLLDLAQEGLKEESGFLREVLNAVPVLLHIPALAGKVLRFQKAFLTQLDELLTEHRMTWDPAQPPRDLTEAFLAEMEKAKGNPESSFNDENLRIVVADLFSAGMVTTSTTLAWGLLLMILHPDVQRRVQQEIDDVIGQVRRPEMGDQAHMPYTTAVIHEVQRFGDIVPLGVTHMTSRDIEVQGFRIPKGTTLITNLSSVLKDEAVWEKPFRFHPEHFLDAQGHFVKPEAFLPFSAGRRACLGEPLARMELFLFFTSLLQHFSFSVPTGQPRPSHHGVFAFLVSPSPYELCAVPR
Sequence of Cytochrome P450 3A4 (P08684 whole entry): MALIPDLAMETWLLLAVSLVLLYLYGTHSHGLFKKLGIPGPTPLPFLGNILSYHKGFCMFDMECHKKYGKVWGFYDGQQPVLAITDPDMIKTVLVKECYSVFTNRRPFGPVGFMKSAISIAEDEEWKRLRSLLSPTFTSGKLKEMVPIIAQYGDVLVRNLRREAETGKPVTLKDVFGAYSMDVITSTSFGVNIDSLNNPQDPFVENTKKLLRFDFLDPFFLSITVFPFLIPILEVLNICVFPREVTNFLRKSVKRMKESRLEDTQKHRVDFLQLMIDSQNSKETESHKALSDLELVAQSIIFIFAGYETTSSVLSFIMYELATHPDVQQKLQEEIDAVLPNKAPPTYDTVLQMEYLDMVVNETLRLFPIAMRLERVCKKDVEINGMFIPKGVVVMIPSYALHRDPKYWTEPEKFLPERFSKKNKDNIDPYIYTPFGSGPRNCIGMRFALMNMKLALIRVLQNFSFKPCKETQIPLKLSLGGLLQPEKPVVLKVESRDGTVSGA

Row | Structure (SMILES) | Activity [1] | Activity [2] | IC50 [3] [nM] | IC50 [4] [nM] | IC50 [5] [nM] | IC50 [6] [nM] | Activity [7] | IC50 [8] [nM] | IC50 [9] [nM] | IC50 [10] [nM] | IC50 [11] [nM]
1 | Cc1nc(C(=O)NCCCN2CCN(c3cccc(Cl)c3Cl)CC2)cc(C(C)C)n1.Cl | Non-toxic | Active | 113 | 5400 | 227 | 644 | Non-toxic | – | – | – | –
2 | COc1c(C)nc(C)nc1C(=O)NCCCN1CCN(c2cccc(C)c2C)CC1.Cl | – | – | 744 | – | 2050 | 892 | Toxic | – | – | – | –
3 | Cc1cc(C(=O)NCCN2CCN(c3cccc(C)c3C)CC2)nc(C(C)(C)C)n1.Cl | Non-toxic | – | 69 | – | 494 | 6370 | Non-toxic | – | – | – | –
4 | Cc1nc(C(=O)NCCCN2CCN(c3cccc(C)c3C)CC2)cc(C(C)(C)C)n1.Cl | Non-toxic | – | 458 | 5900 | 575 | 730 | Non-toxic | – | – | – | –
5 | Cc1cc(C(=O)NCCCN2CCN(c3cccc(Cl)c3Cl)CC2)nc(C)n1.Cl | Non-toxic | Active | 166 | – | 610 | 289 | – | – | – | – | –
6 | CSc1nc(C)cc(C(=O)NCCCN2CCN(c3cccc(C)c3C)CC2)n1.Cl | Non-toxic | Active | 54 | – | 1170 | 394 | Non-toxic | – | – | – | –
7 | COc1c(C)nc(C)nc1C(=O)NCCN1CCN(c2cccc(Cl)c2Cl)CC1.Cl | Non-toxic | – | 263 | – | 135 | 646 | Non-toxic | – | – | – | –
8 | Cc1nc(C(=O)NCCCN2CCN(c3cccc(Cl)c3Cl)CC2)cc(-c2ccccc2)n1 | – | – | 35 | – | 30 | 588 | – | – | – | – | –
9 | COc1c(C)nc(C)nc1C(=O)NCCN1CCN(c2cccc(C)c2C)CC1.Cl | Non-toxic | – | 842 | – | 1270 | 2100 | Non-toxic | – | – | – | –
10 | Cc1nc(C(=O)NCCCN2CCN(c3cccc(C)c3C)CC2)cc(C(C)C)n1.Cl | Non-toxic | – | 490 | – | 1550 | 1210 | Non-toxic | – | – | – | –
11 | CSc1nc(C)cc(C(=O)NCCN2CCN(c3cccc(C)c3C)CC2)n1.Cl | Non-toxic | Active | 47 | – | 148 | 1010 | Non-toxic | > 20000 | > 20000 | > 20000 | > 20000
12 | CSc1nc(C)cc(C(=O)NCCN2CCN(c3cccc(Cl)c3Cl)CC2)n1.Cl | Non-toxic | Active | 55 | – | 81 | 881 | Non-toxic | – | – | – | –
13 | Cc1cc(C(=O)NCCCN2CCN(c3cccc(C)c3C)CC2)nc(C2CC2)n1.Cl | Non-toxic | – | 256 | – | 1180 | 347 | Non-toxic | – | – | – | –
14 | Cc1cc(C(=O)NCCCN2CCN(c3cccc(C)c3C)CC2)nc(C(C)(C)C)n1.Cl | Non-toxic | – | 274 | – | 2690 | 537 | Non-toxic | – | – | – | –
